Biological target: Lp-CdnE02 (CD-NTase057) (Legionella pneumophila, UniProt P0DSP3)
Sequence (P0DSP3 whole entry, looked up): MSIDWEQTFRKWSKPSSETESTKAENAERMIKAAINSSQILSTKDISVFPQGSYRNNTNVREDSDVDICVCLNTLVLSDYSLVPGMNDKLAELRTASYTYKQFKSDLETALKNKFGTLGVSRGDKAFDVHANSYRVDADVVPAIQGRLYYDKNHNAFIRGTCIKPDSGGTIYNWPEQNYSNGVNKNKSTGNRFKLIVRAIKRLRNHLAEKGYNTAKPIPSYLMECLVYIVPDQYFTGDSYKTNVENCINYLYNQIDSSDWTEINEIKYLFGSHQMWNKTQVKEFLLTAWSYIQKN

## O=c1ccn([C@@H]2O[C@H](COP(=O)(O)OP(=O)(O)OP(=O)(O)O)[C@@H](O)[C@H]2O)c(=O)[nH]1 [UTP]
  radiolabelled NTP, TLC and mass spectrometry: Lp-CdnE02 synthesized predominantly c-di-UMP

Reference: paper PMC6544370 (Nature, 2019)
